Holding throughout (type): biochemical
One assay concerns the target T1, CsAMADH1 (Camellia sinensis, UniProt I7F760).
T1 construct: recombinant GST fusion, pGEX-4T-1, purified; plastid-localized; gene from Tea Plant Information Archive, locus id not given
T1 sequence (I7F760 1-505): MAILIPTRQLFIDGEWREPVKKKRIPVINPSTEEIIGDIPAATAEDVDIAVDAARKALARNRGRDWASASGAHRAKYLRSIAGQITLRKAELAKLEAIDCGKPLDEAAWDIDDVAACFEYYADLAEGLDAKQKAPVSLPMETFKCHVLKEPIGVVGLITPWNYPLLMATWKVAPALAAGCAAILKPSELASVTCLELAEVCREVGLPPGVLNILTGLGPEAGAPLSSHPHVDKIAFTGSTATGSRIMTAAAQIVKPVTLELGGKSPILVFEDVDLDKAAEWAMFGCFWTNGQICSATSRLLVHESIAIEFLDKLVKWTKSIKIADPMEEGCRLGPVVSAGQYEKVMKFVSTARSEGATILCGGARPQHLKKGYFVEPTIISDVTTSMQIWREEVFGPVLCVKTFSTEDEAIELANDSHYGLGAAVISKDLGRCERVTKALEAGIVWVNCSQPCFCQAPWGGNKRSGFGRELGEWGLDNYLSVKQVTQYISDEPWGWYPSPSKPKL
The assay can be described thus: NADH formation at […] nm; Lineweaver-Burk. To be noted: 0.1 M potassium phosphate pH 8.0; 0.001 M NAD+ as co-substrate; unit "Mm" [sic] (substrate range 0.1-100 mM).

The target in another assay is T2, CsCuAO1 (Camellia sinensis, UniProt A0A4S4D8A3).
T2 construct: gene TEA_026770; recombinant GST fusion, pGEX-4T-1, purified; peroxisomal; copper/TPQ enzyme, CuAOs stated as homodimer in general; gene from Tea Plant Information Archive, locus id not given
T2 sequence (A0A4S4D8A3 1-662): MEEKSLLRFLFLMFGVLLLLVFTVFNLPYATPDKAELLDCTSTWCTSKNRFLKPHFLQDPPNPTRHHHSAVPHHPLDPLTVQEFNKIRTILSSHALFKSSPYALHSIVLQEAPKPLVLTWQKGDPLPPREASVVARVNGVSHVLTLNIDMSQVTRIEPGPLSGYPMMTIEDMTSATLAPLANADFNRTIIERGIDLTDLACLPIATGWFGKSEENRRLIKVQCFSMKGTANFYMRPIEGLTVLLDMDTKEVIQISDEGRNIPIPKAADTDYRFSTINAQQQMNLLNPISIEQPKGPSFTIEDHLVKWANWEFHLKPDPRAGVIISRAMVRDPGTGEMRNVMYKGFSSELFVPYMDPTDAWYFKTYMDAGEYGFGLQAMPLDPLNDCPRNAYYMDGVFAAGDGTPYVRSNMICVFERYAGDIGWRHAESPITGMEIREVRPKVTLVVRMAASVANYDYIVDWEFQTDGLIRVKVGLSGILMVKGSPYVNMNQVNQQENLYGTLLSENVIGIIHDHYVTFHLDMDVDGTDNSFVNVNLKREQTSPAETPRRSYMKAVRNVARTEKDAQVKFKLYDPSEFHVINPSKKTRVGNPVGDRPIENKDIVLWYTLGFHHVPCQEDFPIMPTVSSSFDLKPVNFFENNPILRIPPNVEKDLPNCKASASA
The assay can be described thus: peroxidase-coupled 4-aminoantipyrine/N,N-dimethylaniline assay at […] nm; Lineweaver-Burk. To be noted: 0.1 M potassium phosphate pH 6.5; O2 co-substrate; unit "Mm" [sic] (substrate range 0.1-100 mM).

In a further assay the target is T3, CsCuAO3 (Camellia sinensis, UniProt A0A4S4DQ49).
T3 construct: gene TEA_013658; recombinant GST fusion, pGEX-4T-1, purified; peroxisomal; copper/TPQ enzyme, CuAOs stated as homodimer in general; gene from Tea Plant Information Archive, locus id not given
T3 sequence (A0A4S4DQ49 1-679): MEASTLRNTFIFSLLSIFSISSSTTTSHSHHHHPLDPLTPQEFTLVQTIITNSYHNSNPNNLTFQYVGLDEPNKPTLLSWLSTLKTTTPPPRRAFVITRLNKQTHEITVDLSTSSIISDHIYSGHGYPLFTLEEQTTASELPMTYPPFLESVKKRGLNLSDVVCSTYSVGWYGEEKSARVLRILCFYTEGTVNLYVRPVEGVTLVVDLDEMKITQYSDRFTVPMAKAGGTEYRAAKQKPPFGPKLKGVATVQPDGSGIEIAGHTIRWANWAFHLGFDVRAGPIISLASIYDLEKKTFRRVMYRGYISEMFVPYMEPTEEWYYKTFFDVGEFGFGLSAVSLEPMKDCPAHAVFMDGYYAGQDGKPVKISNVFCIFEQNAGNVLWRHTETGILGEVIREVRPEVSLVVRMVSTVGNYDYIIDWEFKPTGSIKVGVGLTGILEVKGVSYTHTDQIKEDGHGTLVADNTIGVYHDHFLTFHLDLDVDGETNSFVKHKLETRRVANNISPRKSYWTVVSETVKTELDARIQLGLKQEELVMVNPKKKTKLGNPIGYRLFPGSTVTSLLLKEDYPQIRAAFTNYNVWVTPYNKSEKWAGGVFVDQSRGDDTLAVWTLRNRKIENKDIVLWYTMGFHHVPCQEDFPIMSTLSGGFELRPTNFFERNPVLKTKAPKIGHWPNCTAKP
The assay is described as above. To be noted: 0.1 M potassium phosphate pH 6.5; O2 co-substrate; unit "Mm" [sic] (substrate range 0.1-100 mM).

`NCCCC=O` [4-ABAL]: the Km on CsAMADH1 was 25.7 Mm. As to `NCCCCN` [putrescine], the results for the Km at CsCuAO1 and at CsCuAO3 were 21.9 Mm and 15.8 Mm, respectively.

(Values after paper PMC9100525, “CsCuAOs and CsAMADH1 Are Required for Putrescine-Derived γ-Aminobutyric Acid Accumulation in Tea” (Foods, 2022).)
